Active and inactive are the calls of the source. The calls are words filed in the database; no cut-off is given here. Starred links: 1 amine or outer side, 2 acyl side, 3 side chain; linkers in the order of their positions; H or OH if unused. Positions of bridges follow the written chain, without caps; N, C: chain ends. Non-standard residues stand in square brackets, D forms with d. Residues, ends and D or L forms follow the SMILES beside them. Dap = NC[C@H](N)C(=O)O; CH2 = C([*:1])[*:2]
Key:
[1] = biological target: T1, Neuronal acetylcholine receptor; alpha9/alpha10 (Homo sapiens) (UniProt Q9UGM1+Q9GZZ6); experiment: Antagonist activity at human alpha9alpha10 nAChR expressed in acetylcholine-induced Xenopus laevis oocytes assessed as inhibition of acetylcholine-induced current at 10 nM at -80 mV holding potential incubated for 5 mins by two electrode voltage-clamp assay; assay type: cell-based; settings: Oocyte, filed as antagonist
[2] = Stability in human serum assessed as parent compound remaining incubated at 24 hrs by RP-HPLC analysis; assay type: ADME, cell-free; settings: human serum, read-out: Stability
[3] = biological target: T1, Neuronal acetylcholine receptor; alpha9/alpha10 (Homo sapiens); experiment: Antagonist activity at human alpha9alpha10 nAChR expressed in acetylcholine-induced Xenopus laevis oocytes assessed as inhibition of acetylcholine-induced current at 10 nM at -80 mV holding potential incubated for 5 mins by two electrode voltage-clamp assay relative to control; assay type: cell-based; settings: Oocyte

SMILES	Activity [1]	remaining at 24 h [2] [%]	inhibition [3] [%]	inhibition ([3]; filed as antagonist) [%]
CC[C@H](C)[C@@H]1NC(=O)[C@H](CC(=O)O)NC(=O)[C@@H]2CCCN2C(=O)[C@H](CC(N)=O)NC(=O)[C@H](CC(N)=O)NC(=O)[C@H](C(C)C)NC(=O)[C@H](CO)NC(=O)[C@@H]2CSSC[C@@H]3NC(=O)CNC(=O)[C@H](CN)NC(=O)CNC(=O)[C@H](CN)NC(=O)CNC(=O)[C@H](CN)NC(=O)CNC(=O)[C@H](CSSC[C@H](NC3=O)C(=O)N[C@@H](CN)C(=O)N[C@@H](Cc3cnc[nH]3)C(=O)N3CCC[C@H]3C(=O)N[C@@H](C)C(=O)N2)NC1=O (cyclo(ACSVNNPDICG[Dap]G[Dap]G[Dap]GCC[Dap]HP); disulfide 2-18, 10-19)	Active	85.2	–	–
CC[C@H](C)[C@@H]1NC(=O)[C@H](CC(=O)O)NC(=O)[C@@H]2CCCN2C(=O)[C@H](CC(N)=O)NC(=O)[C@H](CC(N)=O)NC(=O)[C@H](C(C)C)NC(=O)[C@H](CO)NC(=O)[C@@H]2CSSC[C@@H]3NC(=O)CNC(=O)[C@@H](N)CNC(=O)CC[C@@H](C(N)=O)NC(=O)[C@H](CSSC[C@H](NC3=O)C(=O)N[C@@H](CN)C(=O)N[C@@H](Cc3cnc[nH]3)C(=O)N3CCC[C@H]3C(=O)N[C@@H](C)C(=O)N2)NC1=O (HELM PEPTIDE1{[N[C@@H](CN[*:3])C(=O)[*:2]].G.C.C.[NC[C@H](N[*:1])C(=O)[*:2]].H.P.A.C.S.V.N.N.P.D.I.C.E.[am]}$PEPTIDE1,PEPTIDE1,1:R3-18:R3|PEPTIDE1,PEPTIDE1,3:R3-9:R3|PEPTIDE1,PEPTIDE1,4:R3-17:R3$$$V2.0)	–	57.3	< 5	–
CC[C@H](C)[C@@H]1NC(=O)[C@H](CC(=O)O)NC(=O)[C@@H]2CCCN2C(=O)[C@H](CC(N)=O)NC(=O)[C@H](CC(N)=O)NC(=O)[C@H](C(C)C)NC(=O)[C@H](CO)NC(=O)[C@@H]2CSSC[C@H](NC(=O)CN)C(=O)N[C@@H](CNC(=O)C[C@@H](C(N)=O)NC1=O)C(=O)N[C@@H](CN)C(=O)N[C@@H](Cc1cnc[nH]1)C(=O)N1CCC[C@H]1C(=O)N[C@@H](C)C(=O)N2 (HELM PEPTIDE1{G.C.[O=C([C@H](CN[*:3])N[*:1])[*:2]].[NC[C@H](N[*:1])C(=O)[*:2]].H.P.A.C.S.V.N.N.P.D.I.D.[am]}$PEPTIDE1,PEPTIDE1,2:R3-8:R3|PEPTIDE1,PEPTIDE1,3:R3-16:R3$$$V2.0)	–	57.3	< 5	–
CC[C@H](C)[C@@H]1NC(=O)[C@H](CC(=O)O)NC(=O)[C@@H]2CCCN2C(=O)[C@H](CC(N)=O)NC(=O)[C@H](CC(N)=O)NC(=O)[C@H](C(C)C)NC(=O)[C@H](CO)NC(=O)[C@@H]2CSSC[C@@H]3NC(=O)CNC(=O)[C@@H](N)CCCCNC(=O)CC[C@@H](C(N)=O)NC(=O)[C@H](CSSC[C@H](NC3=O)C(=O)N[C@@H](CN)C(=O)N[C@@H](Cc3cnc[nH]3)C(=O)N3CCC[C@H]3C(=O)N[C@@H](C)C(=O)N2)NC1=O (HELM PEPTIDE1{K.G.C.C.[NC[C@H](N[*:1])C(=O)[*:2]].H.P.A.C.S.V.N.N.P.D.I.C.E.[am]}$PEPTIDE1,PEPTIDE1,1:R3-18:R3|PEPTIDE1,PEPTIDE1,3:R3-9:R3|PEPTIDE1,PEPTIDE1,4:R3-17:R3$$$V2.0)	–	57.3	< 40	–
CC[C@H](C)[C@@H]1NC(=O)[C@H](CC(=O)O)NC(=O)[C@@H]2CCCN2C(=O)[C@H](CC(N)=O)NC(=O)[C@H](CC(N)=O)NC(=O)[C@H](C(C)C)NC(=O)[C@H](CO)NC(=O)[C@@H]2CSSC[C@@H]3NC(=O)CNC(=O)CNC(=O)[C@H](C)NC(=O)CNC(=O)[C@H](C)NC(=O)[C@H](C)NC(=O)CNC(=O)CNC(=O)[C@H](CSSC[C@H](NC3=O)C(=O)N[C@@H](CN)C(=O)N[C@@H](Cc3cnc[nH]3)C(=O)N3CCC[C@H]3C(=O)N[C@@H](C)C(=O)N2)NC1=O (HELM PEPTIDE1{A.A.G.A.G.G.C.C.[NC[C@H](N[*:1])C(=O)[*:2]].H.P.A.C.S.V.N.N.P.D.I.C.G.G}$PEPTIDE1,PEPTIDE1,7:R3-13:R3|PEPTIDE1,PEPTIDE1,8:R3-21:R3|PEPTIDE1,PEPTIDE1,1:R1-23:R2$$$V2.0)	–	61.7	–	> 85
CC[C@H](C)[C@@H]1NC(=O)[C@H](CC(=O)O)NC(=O)[C@@H]2CCCN2C(=O)[C@H](CC(N)=O)NC(=O)[C@H](CC(N)=O)NC(=O)[C@H](C(C)C)NC(=O)[C@H](CO)NC(=O)[C@@H]2CSSC[C@@H]3NC(=O)CNC(=O)CNC(=O)[C@H](C)NC(=O)[C@H](C)NC(=O)CNC(=O)[C@H](CSSC[C@H](NC3=O)C(=O)N[C@@H](CN)C(=O)N[C@@H](Cc3cnc[nH]3)C(=O)N3CCC[C@H]3C(=O)N[C@@H](C)C(=O)N2)NC1=O (HELM PEPTIDE1{A.A.G.G.C.C.[NC[C@H](N[*:1])C(=O)[*:2]].H.P.A.C.S.V.N.N.P.D.I.C.G}$PEPTIDE1,PEPTIDE1,5:R3-11:R3|PEPTIDE1,PEPTIDE1,6:R3-19:R3|PEPTIDE1,PEPTIDE1,1:R1-20:R2$$$V2.0)	–	< 40	< 10	–
CC[C@H](C)[C@@H]1NC(=O)[C@H](CC(=O)O)NC(=O)[C@@H]2CCCN2C(=O)[C@H](CC(N)=O)NC(=O)[C@H](CC(N)=O)NC(=O)[C@H](C(C)C)NC(=O)[C@H](CO)NC(=O)[C@@H]2CSSC[C@@H]3NC(=O)CNC(=O)[C@H](CCC(=O)O)NC(=O)CNC(=O)[C@H](CCC(=O)O)NC(=O)CNC(=O)[C@H](CCC(=O)O)NC(=O)CNC(=O)[C@H](CSSC[C@H](NC3=O)C(=O)N[C@@H](CN)C(=O)N[C@@H](Cc3cnc[nH]3)C(=O)N3CCC[C@H]3C(=O)N[C@@H](C)C(=O)N2)NC1=O (HELM PEPTIDE1{A.C.S.V.N.N.P.D.I.C.G.E.G.E.G.E.G.C.C.[NC[C@H](N[*:1])C(=O)[*:2]].H.P}$PEPTIDE1,PEPTIDE1,2:R3-18:R3|PEPTIDE1,PEPTIDE1,10:R3-19:R3|PEPTIDE1,PEPTIDE1,1:R1-22:R2$$$V2.0)	–	57.3	20	–
CC[C@H](C)[C@@H]1NC(=O)[C@H](CC(=O)O)NC(=O)[C@@H]2CCCN2C(=O)[C@H](CC(N)=O)NC(=O)[C@H](CC(N)=O)NC(=O)[C@H](C(C)C)NC(=O)[C@H](CO)NC(=O)[C@@H]2CSCSC[C@H](NC(=O)CN)C(=O)N[C@@H](CSCSC[C@@H](C(N)=O)NC1=O)C(=O)N[C@@H](CN)C(=O)N[C@@H](Cc1cnc[nH]1)C(=O)N1CCC[C@H]1C(=O)N[C@@H](C)C(=O)N2 (H-GCC[Dap]HPACSVNNPDIC-NH2; linker 2-8, 3-16 via CH2)	Active	–	–	–
CC[C@H](C)[C@@H]1NC(=O)[C@H](CC(=O)O)NC(=O)[C@@H]2CCCN2C(=O)[C@H](CC(N)=O)NC(=O)[C@H](CC(N)=O)NC(=O)[C@H](C(C)C)NC(=O)[C@H](CO)NC(=O)[C@@H]2CSSC[C@@H]3NC(=O)CNC(=O)CNC(=O)CNC(=O)[C@H](C)NC(=O)[C@H](C)NC(=O)CNC(=O)CNC(=O)[C@H](CSSC[C@H](NC3=O)C(=O)N[C@@H](CN)C(=O)N[C@@H](Cc3cnc[nH]3)C(=O)N3CCC[C@H]3C(=O)N[C@@H](C)C(=O)N2)NC1=O (HELM PEPTIDE1{A.A.G.G.G.C.C.[NC[C@H](N[*:1])C(=O)[*:2]].H.P.A.C.S.V.N.N.P.D.I.C.G.G}$PEPTIDE1,PEPTIDE1,6:R3-12:R3|PEPTIDE1,PEPTIDE1,7:R3-20:R3|PEPTIDE1,PEPTIDE1,1:R1-22:R2$$$V2.0)	–	43.3	–	> 85
CC[C@H](C)[C@@H]1NC(=O)[C@H](CC(=O)O)NC(=O)[C@@H]2CCCN2C(=O)[C@H](CC(N)=O)NC(=O)[C@H](CC(N)=O)NC(=O)[C@H](C(C)C)NC(=O)[C@H](CO)NC(=O)[C@@H]2CSCSC[C@H](NC(=O)CN)C(=O)N[C@@H](CSSC[C@@H](C(N)=O)NC1=O)C(=O)N[C@@H](CN)C(=O)N[C@@H](Cc1cnc[nH]1)C(=O)N1CCC[C@H]1C(=O)N[C@@H](C)C(=O)N2 (HELM PEPTIDE1{G.C.C.[NC[C@H](N[*:1])C(=O)[*:2]].H.P.A.C.S.V.N.N.P.D.I.C.[am]}|CHEM1{[C([*:1])[*:2]]}$PEPTIDE1,CHEM1,2:R3-1:R1|PEPTIDE1,CHEM1,8:R3-1:R2|PEPTIDE1,PEPTIDE1,3:R3-16:R3$$$V2.0)	Active	–	–	–
CC[C@H](C)[C@@H]1NC(=O)[C@H](CC(=O)O)NC(=O)[C@@H]2CCCN2C(=O)[C@H](CC(N)=O)NC(=O)[C@H](CC(N)=O)NC(=O)[C@H](C(C)C)NC(=O)[C@H](CO)NC(=O)[C@@H]2CSSC[C@@H]3NC(=O)CNC(=O)[C@@H](N)CNC(=O)C[C@@H](C(N)=O)NC(=O)[C@H](CSSC[C@H](NC3=O)C(=O)N[C@@H](CN)C(=O)N[C@@H](Cc3cnc[nH]3)C(=O)N3CCC[C@H]3C(=O)N[C@@H](C)C(=O)N2)NC1=O (HELM PEPTIDE1{[N[C@@H](CN[*:3])C(=O)[*:2]].G.C.C.[NC[C@H](N[*:1])C(=O)[*:2]].H.P.A.C.S.V.N.N.P.D.I.C.D.[am]}$PEPTIDE1,PEPTIDE1,1:R3-18:R3|PEPTIDE1,PEPTIDE1,3:R3-9:R3|PEPTIDE1,PEPTIDE1,4:R3-17:R3$$$V2.0)	–	57.3	< 5	–
CC.CC[C@H](C)[C@@H]1NC(=O)[C@H](CC(=O)O)NC(=O)[C@@H]2CCCN2C(=O)[C@H](CC(N)=O)NC(=O)[C@H](CC(N)=O)NC(=O)[C@H](C(C)C)NC(=O)[C@H](CO)NC(=O)[C@@H]2CSSC[C@H](NC(=O)CN)C(=O)N[C@@H](CSCSC[C@@H](C(N)=O)NC1=O)C(=O)N[C@@H](CN)C(=O)N[C@@H](Cc1cnc[nH]1)C(=O)N1CCC[C@H]1C(=O)N[C@@H](C)C(=O)N2 (HELM PEPTIDE1{G.C.C.[NC[C@H](N[*:1])C(=O)[*:2]].H.P.A.C.S.V.N.N.P.D.I.C.[am]}|CHEM1{[C([*:1])[*:2]]}$PEPTIDE1,PEPTIDE1,2:R3-8:R3|PEPTIDE1,CHEM1,3:R3-1:R1|PEPTIDE1,CHEM1,16:R3-1:R2$$$V2.0)	Active	–	–	–

Source: ChEMBL document CHEMBL6074659, “Development of an Intravenously Stable Disulfide-Rich Peptide for the Treatment of Chemotherapy-Induced Neuropathic Pain” (J Med Chem, 2024)
